The source of these data is publication PMC11012005 (International Journal of Molecular Sciences, 2024).

Molecules are shown by their SMILES. Non-standard residues stand in square brackets, D forms with d. Residues, ends and D or L forms follow the SMILES beside them. Bounds are passed on as bounds.

In data set [1] the target is T1, human MOR (Homo sapiens, UniProt P35372).
T1 construct: expressed in transfected cells; host or cells: CHO cells (CHO-hMOR), gift of Dr. Lawrence Toll, SRI International
Put plainly: [35S]GTPγS binding assay, CHO-hMOR cell membranes. Format: biochemical. The following applies: for % stim.: relative to reference MOR agonist DAMGO, mean ± SEM, n = 3–4. From the text: All data are presented as mean ± SEM. A p < 0.05 was considered statistically significant.
On the technique in general: GTPγS resists hydrolysis and so accumulates on activated G proteins.

The target in data set [2] is T2, human NOP receptor (Homo sapiens, UniProt P41146).
T2 construct: expressed in transfected cells; host or cells: CHO cells (CHO-hNOP), gift of Dr. Lawrence Toll, SRI International
Put plainly: Radioligand binding, [3H]nociceptin, CHO-hNOP cell membranes. Particulars: for Ki: CHO-hNOP membranes, [3H]nociceptin 0.1 nM, n = 3, read-out: Opioid Receptor Binding (Ki, nM) NOP.

Data set [3] has as its target T1, human MOR. Put plainly: Radioligand competition binding, [3H]DAMGO, CHO-hMOR cell membranes. Particulars: read-out: Opioid Receptor Binding (Ki, nM) MOR. On the technique in general: Displacement assays read how much labelled ligand stays bound in the presence of the test substance.
Data set [4] is described as follows: Pharmacokinetic study: detection in brain homogenate by LC-DAD-MS (BBB permeability). Format: in vivo. Particulars: 7.8 and 39 µmol/kg s.c., mice, brains two hours after treatment. The protocol:
(§1) Experiments were performed with male CD1 mice (8–10 weeks old, 30–35 g body weight) purchased from Janvier Labs (Le Genest-Saint-Isle, France). All animal care and experimental procedures were in accordance with the ethical guidelines for the animal welfare standards of the European Communities Council Directive (2010/63/EU) and were approved by the Committee of Animal Care of the Austrian Federal Ministry of Science and Research. Mice were group-housed (maximum of 5 animals per cage) in a temperature- (21–22 °C) and humidity-controlled (60–70%) specific pathogen-free room with a 12 h light/dark cycle and with free access to food and water. LENART01 and naloxone were prepared in sterile physiological 0.9% saline solution. Tested doses of LENART01 were 0.78, 3.9, 7.8 and 39 µmol/kg (1, 5, 10 and 50 mg/kg, respectively). LENART01 or vehicle (saline) were s.c. administered in a volume of 10 µL/g body weight.
Two hours after the s.c. administration of LENART01 (doses of 7.8 and 39 µmol/kg), the mice were sacrificed and the brains were removed, washed with sterile physiological 0.9% saline and frozen in dry ice until use. […] The MS spectra were recorded in the negative ion mode only. The UV spectra were recorded over the range of 200–600 nm. […] The presence of the analyzed compound was checked by the monitoring of its pseudomolecular ion eluting at ca. 10 min. […]

The test system of data set [5] is mice. Put plainly: Naloxone-precipitated withdrawal syndrome after chronic s.c. treatment. Format: in vivo. Particulars: 7.8 µmol/kg s.c. twice daily for 5 days; naloxone 1 mg/kg s.c. two hours after last injection; vs. saline. The protocol:
as §1, with “Tested doses of LENART01 were 0.78, 3.9, 7.8 and 39 µmol/kg (1, 5, 10 and 50 mg/kg, respectively). LENART01 or vehicle (saline) were s.c. administered in a volume of 10 µL/g body weight.” left out
(§2) Opioid physical dependence was assessed using naloxone-induced withdrawal syndrome in mice as described previously. […] Animals were immediately placed in clear acrylic cylinders, and signs of opioid withdrawal were recorded for 15 min. Monitored behaviors included vertical jumps, paw tremor, head shakes, urine output, the presence/absence of diarrhea, feces output and body weight loss. For each mouse, a global withdrawal score was calculated by summing the values obtained for each sign (one point was assigned to every 3 jumps and 5 paw tremors, respectively, whereas all other signs were given the absolute values recorded during the test). […]

Data set [6] has as its target T3, human KOR (Homo sapiens, UniProt P41145).
T3 construct: expressed in transfected cells; host or cells: CHO cells (CHO-hKOR), gift of Dr. Lawrence Toll, SRI International
The data set can be described thus: Radioligand competition binding, [3H]U69,593, CHO-hKOR cell membranes. The following applies: for Ki: CHO-hKOR membranes, [3H]U69,593 1 nM, mean ± SEM, n = 3, read-out: Opioid Receptor Binding (Ki, nM) KOR.

The target of data set [7] is T4, human DOR (Homo sapiens, UniProt P41143).
T4 construct: expressed in transfected cells; host or cells: CHO cells (CHO-hDOR), gift of Dr. Lawrence Toll, SRI International
Put plainly: Radioligand competition binding, [3H]DPDPE, CHO-hDOR cell membranes.

The nature of data set [8]: Body weight changes during chronic s.c. treatment. Format: in vivo, mice. The following applies: chronic administration of 7.8 µmol/kg s.c. twice daily for 5 days, vs. saline. The protocol:
as §1, with “Tested doses of LENART01 were 0.78, 3.9, 7.8 and 39 µmol/kg (1, 5, 10 and 50 mg/kg, respectively). LENART01 or vehicle (saline) were s.c. administered in a volume of 10 µL/g body weight.” left out
as §2

The test system of data set [9] is mice. The data set can be described thus: Rotarod test after s.c. administration. It counts as in vivo. The following applies: 7.8 and 39 µmol/kg, any time point, vs. saline. The protocol: as §1
Animals were accustomed to the equipment in two training sessions (30 min apart) one day before testing. […] The time spent on the drum was recorded for each mouse before (baseline) and after the s.c. administration of saline or test compound (i.e., 30, 60 and 120 min). […] The rotarod data are expressed as percentage (%) changes from the rotarod latencies obtained before (baseline, B) and after drug administration (test, T) and were calculated as follows: 100 × (T/B). […]
In general terms: The rotarod test checks motor coordination on a turning rod.

Data set [10] has as its system mice. Particulars: repeated s.c. administration, 15 µmol/kg (5 mg/kg); cited from earlier work.
Data set [11] concerns mice. The following applies: s.c., 31 µmol/kg (10 mg/kg); cited from earlier work.

Usually EC50 stands for the concentration needed to bring the measured effect to its halfway point. A low value points to a more potent agent. For orientation: Ki means the dissociation constant of the complex between target and ligand, obtained from inhibition or displacement. In turn, `CSCC[C@H](NC(=O)[C@H](Cc1ccccc1)NC(=O)[C@H](Cc1c[nH]cn1)NC(=O)CNC(=O)[C@H](CO)NC(=O)[C@@H]1CCCN1C(=O)[C@H](Cc1ccc(O)cc1)NC(=O)CNC(=O)[C@H](Cc1ccccc1)NC(=O)[C@@H](C)NC(=O)[C@@H](N)Cc1ccc(O)cc1)C(N)=O` [LENART01] (H-Y[dA]FGYPSGHFM-NH2) showed an EC50 in [1] of 48.5 ± 10.6 nM. The “% stim.” value in [1] is 110 ± 7%. Also, the inhibitory constant (Ki) was greater than 10000 nM in data set [2]; 11 ± 1.5 nM in [3]; 1310 ± 226 nM in data set [6]; 227 ± 47 nM in [7] (CHO-hDOR membranes, [3H]DPDPE 1 nM, mean ± SEM, n = 3, read-out: Opioid Receptor Binding (Ki, nM) DOR). Besides, the “Selectivity Ki Ratios NOP/MOR” value in [2] (Ki ratio NOP/MOR) is greater than 900. Moreover, the “Transport across the BBB (signal in brain homogenate)” value in [4] was “no detectable signal”. Further, in data set [5], the Naloxone-precipitated withdrawal signs result is recorded as “did not induce withdrawal signs”. In addition, the “Selectivity Ki Ratios KOR/MOR” value in data set [6] (Ki ratio KOR/MOR) is 119. Besides, the “Selectivity Ki Ratios DOR/MOR” value in data set [7] (Ki ratio DOR/MOR) came to 21. In addition, the “Effect on body weights” value in [8] is “did not have any significant effect on the body weights”. Further, in [9], the “Effect on rotarod latencies (motor behavior)” value is “no significant alterations in the rotarod latencies”.
As for `CN1CC[C@]23c4c5ccc(O)c4O[C@H]2[C@@H](O)C=C[C@H]3[C@H]1C5` [morphine], in data set [10], the Naloxone-induced withdrawal syndrome entry is on record as “significant naloxone-induced withdrawal syndrome”. Further, in [11], the “Effect on time on the rotarod” value is listed as “significantly reduced time on the rotarod”.
As to `C[C@@H](NC(=O)[C@@H](N)Cc1ccc(O)cc1)C(=O)NCC(=O)N(C)[C@@H](Cc1ccccc1)C(=O)NCCO` [DAMGO, reference compound], the “% stim.” value in [1] is given as 100%.
On to `C[C@@H](NC(=O)[C@@H](N)Cc1ccc(O)cc1)C(=O)N[C@@H](Cc1ccccc1)C(=O)NCC(=O)N[C@@H](Cc1ccc(O)cc1)C(=O)N1CCC[C@H]1C(=O)N[C@@H](CO)C(N)=O` [Dermorphin, reference compound], for which the “% stim.” value in data set [1] stood at 104 ± 8%. For the same compound, the values for the Ki in [2] and in data set [6] were greater than 10000 nM and 2710 ± 873 nM, respectively. For the same compound, in [2] (at the concentration of 10 µM, [3H]nociceptin), the “Specific binding to human NOP receptor” value is “no substantial binding”.
